Values joined by “and” are separate entries in the source; they are usually repeats but may differ in a detail not shown here. Equal values may be shown once. Read-outs that look alike come from different tables or passages of the source.
How the values were obtained:
MOLM-14 = test: Half-maximal growth inhibition (GI50), MOLM-14; format: cell-based; conditions: Homo sapiens, 240 h, AML, M5, MLL-AF9, read-out: GI50 (nM), day 10
Description: (§1) Compounds A, B, C, D, and F were tested against various cell lines to probe their broad utility against cancer. Cortistatin A (CA) was also tested against the cell lines in a head to head fashion.

CDK8 [1] = molecular target: T1, CDK8 (Homo sapiens, UniProt P49336); test: CDK8 IC50 determination (Example 9); format: biochemical
[2] = system: Human AML cell line MV4;11; test: MV4;11 disseminated leukemia model (bioluminescence); format: in vivo, NSG mice; conditions: for Fold increase in leukemia burden 15 days after 1st dose / in vivo anti-leukemic efficacy (bioluminescence, words): NSG mice; for in vivo anti-leukemic efficacy (bioluminescence, words): compounds dosed at their highest tolerable dose; for Efficacy Rank Day 15: each compound at its own dose/schedule, data from 3 separate studies
Description: The in vivo anti-leukemic activity of Compounds A, B, C, D, and F was tested at the indicated doses and treatment schedules. The doses were chosen based on the compounds tolerability profile (i.e. CA was dosed at 0.16 mg/kg because higher doses caused weight loss or other tolerability issues outlined in Example 6). Human AML cell line MV4;11 expressing mCherry and luciferase were injected into NSG mice. Upon measurement of leukemia cell engraftment, treatment was initiated. Body weight and bioluminescence were measured. It has previously been shown (Shair, Nature 2015) that bioluminescence corresponds to leukemia burden. […] Moreover there was no appreciable advantage between IV or PO dosing observed.

hERG = hERG (Homo sapiens, UniProt Q12809); test: Panlab hERG assay; format: binding; set-up: Eurofins Panlabs
Description: Compounds A, B, C, and D were tested in Panlab assays to evaluate potential off-target activity using standard assay kits. Methods employed in these studies have been adapted from the scientific literature to maximize reliability and reproducibility. Reference standards were run as an integral part of each assay to ensure the validity of the results obtained.
Compound B was tested in a subset of 30 Panlab assays that included the hits from screening Compound F in addition to the Panlab hERG and sodium channel assay. This allows direct comparison of Compound B to Compound F in terms of off-target profile.

CDK8/Cyclin C = molecular target: T2, CDK8/Cyclin C (Homo sapiens, UniProt P49336); test: 33PanQinase radiometric kinase assay, CDK8/Cyclin C; format: biochemical; conditions: read-out: percent inhibition of CDK8/Cyclin C
T2 construct: purchased ProQinase; host or cells: Sf9 insect cells or E. coli
Description: A radiometric protein kinase assay (33PanQinase Activity Assay) was used for measuring the kinase activity of the 320 protein kinases. All kinase assays were performed in 96-well FlashPlates™ from Perkin Elmer (Boston, Mass., USA) in a 50 μl reaction volume. The reaction cocktail was pipetted in 4 steps in the following order: • 1. 10 μl of non-radioactive ATP solution (in H2O) • 2. 25 μl of assay buffer/[γ-33P]-ATP mixture • 3. 5 μl of test sample in 10% DMSO • 4. 10 μl of enzyme/substrate mixture
All PKC assays (except the PKC-mu and the PKC-nu assay) additionally contained 1 mM CaCl2, 4 mM EDTA, 5 μg/ml phosphatidylserine and 1 μg/ml 1,2-dioleyl-glycerol.
The CAMKID, CAMK2A, CAMK2B, CAMK2D, CAMK4, CAMKK1, CAMKK2, DAPK2, EEF2K, MYLK, MYLK2 and MYLK3 assays additionally contained 1 μg/ml Calmodulin and 0.5 mM CaCl2). The PRKG1 and PRKG2 assays additionally contained 1 μM cGMP. The DNA-PK assay additionally contained 2.5 μg/ml DNA. The protein kinase reaction cocktails were incubated at 30° C. for 60 minutes. The reaction was stopped with 50 μl of 2% (v/v) H3PO4, plates were aspirated and washed two times with 200 μl 0.9% (w/v) NaCl. Incorporation of 33Pi (counting of “cpm”) was determined with a microplate scintillation counter (Microbeta, Wallac). All protein kinase assays were performed with a BeckmanCoulter Biomek 2000/SL robotic system.
All protein kinases provided by ProQinase were expressed in Sf9 insect cells or in E. coli as recombinant GST-fusion proteins or His-tagged proteins, either as full-length or enzymatically active fragments. All kinases were produced from human cDNAs and purified by either GSHaffinity chromatography or immobilized metal. Affinity tags were removed from a number of kinases during purification. The purity of the protein kinases was examined by SDSPAGE/Coomassie staining, the identity was checked by mass spectroscopy.
For each kinase, the median value of the cpm of three wells was defined as “low control” (n=3). This value reflects unspecific binding of radioactivity to the plate in the absence of a protein kinase but in the presence of the substrate. Additionally, for each kinase the median value of the cpm of three other wells was taken as the “high control”, i.e. full activity in the absence of any inhibitor (n=3). The difference between high and low control of each enzyme was taken as 100% activity. As part of the data evaluation the low control of each kinase was subtracted from the high control value as well as from their corresponding “compounds values”. The residual activity (in %) for each compounds well was calculated by using the following formula:
Res. Activity (%)=100×[(signal of compounds−low control)/(high control−low control)]

CDK8 [3] = molecular target: T1, CDK8; test: Western blot study of CDK8 inhibition; format: cell-based; conditions: decreased staining results from inhibition of the target
Description: CDK8 inhibition in cells as measured by inhibition of Interferon-gamma (IFNγ)-stimulated STAT1-S727 phosphorylation. The compounds were provided as 200 μl of 1×10^−03 M/100% stock solutions in vials. The vials arrived in good condition and 2×100 μl each of the stock solutions were transferred into wells A2 to H2 of a 96 well “master plate” (barcoded “11273-UNH-01”), according to Table 12.
The dose response curves presented above were corroborated with western blot studies.

MV4; 11 = test: Half-maximal growth inhibition (GI50), MV4; 11; format: cell-based; conditions: Homo sapiens, 240 h, AML, M5, MLL-AF4, read-out: GI50 (nM), day 10
Description: as §1

[4] = Pharmacokinetic profile in mice (plasma, LC-MS/MS); conditions: for Vd / clearance / AUC(0-inf) / Cmax / Tmax / bioavailability / concentration at 24 h: CD-1, mouse, plasma; for ½ life: CD-1 mice
Description: Formulation correction for salt content was not required for this study. Materials were vortexed and sonicated at room temperature following addition of vehicle. The solutions were maintained at ambient temperature stirring in the dark for at least 30 minutes prior to dose administration. The formulations were then vortexed and sonicated briefly to help ensure solubility.
Mice were selected from the Testing Facility's rodent colony. The animals were enrolled in the study based on acceptable health as determined by Testing Facility personnel on the day of test article administration. Animals were held in environmental acclimation for at least 48 hours (±6 hours) prior to dosing. Animals were maintained at temperatures between 16-26° C. (62-78° F.) with the humidity range between 30-70%. Animals in all groups were fasted overnight and food was returned 4 hours following dosing. Water was provided ad libitum throughout the study.
Whole blood samples for plasma were either collected from each animal by either direct vein puncture of the submandibular vein (survival blood collection) or by cardiac puncture following euthanasia with CO2 (terminal blood collection). […] Following collection, whole blood was placed into a tube containing K2EDTA and immediately placed on wet ice until processed for plasma. Whole blood samples were centrifuged at 2200×g for 10 minutes in a refrigerated centrifuge (5±3° C.) to isolate plasma. The samples were transferred to individual polypropylene containers and immediately placed on dry ice before storage at −70±10° C. until analysis. Plasma collected from undosed spare animals was pooled and analyzed as well.
Once collected the mouse plasma studies were quantitated using LCMS/MS spectroscopy to determine the concentration of compound. […] Eight calibration standards containing the analyte and internal standard imipramine were prepared and analyzed at the beginning and at the end of the sequence. A calibration curve was generated and sample concentrations calculated using the Quantitation software MassHunter.

CDK8 [5] = molecular target: T1, CDK8; test: CDK8 Kd and residence time; format: binding
[6] = read-out: IC50 (nM) against CDK8, average
[7] = tested in duplicate, read-out: IC50 against CDK8, single determinations

T2 sequence (P49336 whole entry): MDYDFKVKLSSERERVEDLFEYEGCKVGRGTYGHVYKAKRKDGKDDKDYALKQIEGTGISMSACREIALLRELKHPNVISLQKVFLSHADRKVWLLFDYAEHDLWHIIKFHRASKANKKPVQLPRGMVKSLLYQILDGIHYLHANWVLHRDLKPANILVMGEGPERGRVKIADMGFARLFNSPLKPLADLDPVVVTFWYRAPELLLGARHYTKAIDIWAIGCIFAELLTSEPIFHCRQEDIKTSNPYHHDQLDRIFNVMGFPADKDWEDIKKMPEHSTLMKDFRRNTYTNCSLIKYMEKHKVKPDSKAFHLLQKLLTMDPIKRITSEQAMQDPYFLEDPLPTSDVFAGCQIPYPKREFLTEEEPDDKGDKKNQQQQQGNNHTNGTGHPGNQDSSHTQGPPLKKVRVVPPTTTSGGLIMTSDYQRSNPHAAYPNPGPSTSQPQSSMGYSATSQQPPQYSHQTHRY
T2 sequence (P24863 whole entry partner): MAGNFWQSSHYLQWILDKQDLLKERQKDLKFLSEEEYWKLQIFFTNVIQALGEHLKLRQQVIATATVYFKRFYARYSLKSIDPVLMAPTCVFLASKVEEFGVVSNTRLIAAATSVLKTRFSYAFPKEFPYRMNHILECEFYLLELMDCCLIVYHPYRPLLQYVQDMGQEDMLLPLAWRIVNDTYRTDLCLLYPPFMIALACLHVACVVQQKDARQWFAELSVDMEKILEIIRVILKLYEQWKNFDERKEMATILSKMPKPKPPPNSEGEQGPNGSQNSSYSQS
T1 sequence (P49336 whole entry): as the sequence (P49336 whole entry) above
T1 sequence (P24863 whole entry partner): as the sequence (P24863 whole entry partner) above
Sequence of hERG (Q12809 whole entry): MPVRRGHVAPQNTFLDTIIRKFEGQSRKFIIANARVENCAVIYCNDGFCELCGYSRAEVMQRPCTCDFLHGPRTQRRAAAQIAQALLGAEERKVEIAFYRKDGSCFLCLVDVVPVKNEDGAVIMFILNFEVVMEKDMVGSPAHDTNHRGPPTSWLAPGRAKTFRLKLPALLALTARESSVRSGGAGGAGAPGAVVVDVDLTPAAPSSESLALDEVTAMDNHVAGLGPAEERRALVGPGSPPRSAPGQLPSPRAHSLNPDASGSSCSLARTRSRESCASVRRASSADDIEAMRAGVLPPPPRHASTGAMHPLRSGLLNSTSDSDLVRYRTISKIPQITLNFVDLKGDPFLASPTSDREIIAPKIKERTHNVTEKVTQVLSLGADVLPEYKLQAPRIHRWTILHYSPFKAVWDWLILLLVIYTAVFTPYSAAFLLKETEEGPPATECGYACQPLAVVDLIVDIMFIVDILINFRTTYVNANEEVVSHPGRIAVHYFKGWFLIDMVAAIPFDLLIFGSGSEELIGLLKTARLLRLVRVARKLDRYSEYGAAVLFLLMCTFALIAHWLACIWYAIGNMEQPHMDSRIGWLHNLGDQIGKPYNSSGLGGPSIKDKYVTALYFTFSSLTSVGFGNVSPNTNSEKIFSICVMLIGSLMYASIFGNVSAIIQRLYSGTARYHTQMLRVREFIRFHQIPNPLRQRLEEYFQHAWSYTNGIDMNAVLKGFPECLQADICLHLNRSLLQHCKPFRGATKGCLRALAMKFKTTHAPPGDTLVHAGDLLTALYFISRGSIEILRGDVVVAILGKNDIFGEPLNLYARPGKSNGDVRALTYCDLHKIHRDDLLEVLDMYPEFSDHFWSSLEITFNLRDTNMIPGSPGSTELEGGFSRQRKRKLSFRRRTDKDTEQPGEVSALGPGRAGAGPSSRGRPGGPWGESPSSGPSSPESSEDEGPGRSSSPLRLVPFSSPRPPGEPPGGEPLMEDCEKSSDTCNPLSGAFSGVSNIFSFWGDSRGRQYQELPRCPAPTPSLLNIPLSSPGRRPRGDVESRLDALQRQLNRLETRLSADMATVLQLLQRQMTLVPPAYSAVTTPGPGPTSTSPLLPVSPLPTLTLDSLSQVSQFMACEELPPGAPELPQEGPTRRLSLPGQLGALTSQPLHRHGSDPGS

Structure (SMILES) | GI50 (MOLM-14) [nM] | IC50 (CDK8 [1]; [6]) [nM] | IC50 (CDK8 [1]; [7]) | in vivo anti-leukemic efficacy (bioluminescence, words) [2] | Efficacy Rank Day 15 [2] | inhibition at 10 µM (hERG) [%] | inhibition at 1 µM (CDK8/Cyclin C) [%] | inhibition of CDK8 in Western blot (CDK8 [3]) | GI50 (MV4; 11) [nM] | Vd ([4]; iv, 3 mg/kg) [L/kg] | clearance ([4]; iv, 3 mg/kg) [mL/min/kg] | AUC(0-inf) ([4]; po, 10 mg/kg) [ng·h/mL] | Cmax ([4]; po, 10 mg/kg) [nM] | Tmax ([4]; po, 10 mg/kg) [h] | bioavailability ([4]; po, 10 mg/kg) [%] | concentration at 24 h ([4]; po, 10 mg/kg) [nM] | ½ life ([4]; IV 3 mg/kg) [h] | ½ life ([4]; PO 10 mg/kg) [h] | Kd (CDK8 [5]) [nM] | further results
C[C@]12CC=C3C=C4CC[C@@H](N5C[C@H](O)[C@@H](O)C5)C[C@]45CC[C@]3(O5)[C@@H]1CC[C@@H]2c1ccc2ccncc2c1 [Compound D] | 6 | 6.4 | 6.4 nM and 6.5 nM | superior in vivo efficacy as compared to Compound F | 1 | 20 | > 50 | dose dependent response | 1.5 | 5.41 | 18 | 1390 | 377 | 2 | 15 | 7.6 | 6.60 | 4.25 | 0.2 ± 0.02 | Fold increase in leukemia burden 15 days after 1st dose ([2]; 3 mpk IV 7on/2off/4on then IP 2on): 1.1 fold; AUC(0-inf) ([4]; male, iv, 3 mg/kg): 2780 ng·h/mL
C[C@]12CC=C3C=C4CC[C@@H](O)C[C@]45CC[C@]3(O5)[C@@H]1CC[C@@H]2c1ccc2ccncc2c1 [Compound A, (3S,3aR,9R,10aR,12aS,12bR)-3-(isoquinolin-7-yl)-3a-methyl-1,2,3,3a,4,7,8,9,10,11,12,12b-dodecahydro-10a,12a-epoxybenzo[4,5]cyclohepta[1,2-e]inden-9-ol] | 6 | 9.9 | 10.6 nM and 9.3 nM | similarly efficacious to Compound F | 5 |  | > 50 | dose dependent response | 1.5 | 1.12 | 18.4 | 3970 | 3870 | 0.5 | 43.9 | 1.8 | 4.08 | 3.04 | 0.23 ± 0.02 | Fold increase in leukemia burden 15 days after 1st dose ([2]; 20 mpk PO Q5Dx2): 10.4 fold; AUC(0-inf) ([4]; male, po, 20 mg/kg): 7940 ng·h/mL; residence time (CDK8 [5]): 447 min
C[C@]12CC=C3C=C4CC[C@@H](N5CC[C@@H](N)C5)C[C@]45CC[C@]3(O5)[C@@H]1CC[C@@H]2c1ccc2ccncc2c1 [Compound B] | 31 | 9.1 | 5.5 nM and 12.7 nM | superior in vivo efficacy as compared to Compound F | 3 | 34 | > 50 | dose dependent response | 4 | 26.6 | 31 | 1060 | 218 | 2 | 19.8 | 26.4 | 18.7 | 9.55 | 0.19 ± 0.05 | Fold increase in leukemia burden 15 days after 1st dose ([2]; 10 mpk PO 7 on/2off/6on): 5.2 fold; AUC(0-inf) ([4]; male, po, 10 mg/kg): 1060 ng·h/mL
C[C@]12CC=C3C=C4CC[C@@H](N5CC(N)C5)C[C@]45CC[C@]3(O5)[C@@H]1CC[C@@H]2c1ccc2ccncc2c1 [Compound C] | 21 | 9.5 | 8.9 nM and 10.2 nM | superior in vivo efficacy as compared to Compound F | 2 | 49 | > 50 | dose dependent response | 2 | 26.4 | 23.7 | 2970 | 462 | 8 | 42.3 | 82.5 | 14.7 | 6.68 | 0.22 ± 0.03 | Fold increase in leukemia burden 15 days after 1st dose ([2]; 5 mpk PO 7on/4off/4on): 2.2 fold; AUC(0-inf) ([4]; male, po, 5 mg/kg): 1480 ng·h/mL

From patent US20180298024A1, “CORTISTATIN ANALOGS AND USES THEREOF” (President and Fellows of Harvard College, priority 2015, published 2018)
